Reference: patent publication US10047105B2, “Gyrase inhibitors” (Merck Sharp & Dohme Corp., priority 2009, dated 2018)
Values after ≈ are worked out from the molar mass of the structure shown.

How the values were obtained:
Type in all cases: cell-based
[1] = system: E. coli 8 ATCC 25922; assay: MIC, E. coli 8 (wt); settings: E. coli 8 (EC8)
[2] = system: S. aureus ATCC 13709; assay: MIC, antibacterial potency, S. aureus; settings: S. aureus (SA); in µg/mL
[3] = system: S. pneumoniae ATCC 51916; assay: MIC, S. pneumoniae; settings: S. pneumoniae (Spn52); in µg/mL

Structure (SMILES)	MIC EC8 [1]	MIC, SA [2]	MIC Spn52 [3]
NC1C2CN(c3nc(Sc4cnc5cccnc5c4)nc4[nH]c(C5CC5)c(Cl)c34)CC12 (stereo not drawn) [701,063]	4 µg/mL (≈ 8.89 µM)	2	2
CCc1[nH]c2nc(Oc3cc4ncn(C)c4[n+]([O-])c3)nc(Oc3cnc4c(c3)ncn4C)c2c1Cl [701,067]	> 64 µg/mL	>64	>64
NC1CN(c2nc(Sc3cnc4ccc[n+]([O-])c4c3)nc3[nH]c(C4CC4)c(Cl)c23)C1 [701,074]	8 µg/mL (≈ 18.2 µM)	8	4
CCc1[nH]c2nc(SC)nc(N3CC[C@@H](N)C3)c2c1C#N [701,077]	> 64 µg/mL	>64	>64
CCc1[nH]c2nc(Oc3cc(C#N)c(OC)c(OC)c3)nc(Oc3ccc4nccnc4c3)c2c1Br [701,081]	> 32 µg/mL	<=0.5	<=0.5
CCc1[nH]c2nc(Oc3ccc[n+]([O-])c3)nc(Oc3ccc4nccnc4c3)c2c1Br [701,091]	> 64 µg/mL	<=0.5	<=0.5
CCc1[nH]c2nc(Oc3ccc[n+]([O-])c3)nc(Oc3ccc[n+]([O-])c3)c2c1Br [701,092]	> 64 µg/mL	<=0.5	2
CCc1[nH]c2nc(Oc3ccc[n+]([O-])c3)nc(Oc3cccnc3)c2c1Br [701,093]	> 32 µg/mL	<=0.5	4
CCc1[nH]c2nc(Oc3cccc(S(C)(=O)=O)c3)nc(Oc3ccc4nccnc4c3)c2c1Br [701,095]	> 64 µg/mL	<=0.5	<=0.5
CCc1[nH]c2nc(Oc3cnc(OC)c(OC)c3)nc(Oc3ccc4nccnc4c3)c2c1Br [701,096]	> 64 µg/mL	<=0.5	<=0.5
CCc1[nH]c2nc(Oc3cnc(OC)c(OC)c3)nc(Oc3cnc(OC)c(OC)c3)c2c1Br [701,097]	> 64 µg/mL	<=0.5	1
CCc1[nH]c2nc(Oc3cncnc3)nc(Oc3ccc4c(N5CCOCC5)ncnc4c3)c2c1Br [701,104]	> 32 µg/mL	<=0.5	<=0.5
CCc1[nH]c2nc(Oc3cnc(O)nc3)nc(Oc3cnc(O)nc3)c2c1Br [701,105]	> 64 µg/mL	1	2
CCc1[nH]c2nc(Oc3cnc(N)nc3)nc(Oc3cnc(N)nc3)c2c1Br [701,106]	> 64 µg/mL	2	4
CCc1[nH]c2nc(Oc3cnc(N)nc3)nc(N3CC(CN(C)C)C3)c2c1Cl [701,112]	> 64 µg/mL	16	32
CCc1[nH]c2nc(Oc3ccc4nccnc4c3)nc(N3CC(CN(C)C)C3)c2c1Cl [701,113]	> 64 µg/mL	32	32
CCc1[nH]c2nc(Oc3ccc4nccnc4c3)nc(N3CC(CN(C)C)C3)c2c1Br [701,114]	> 64 µg/mL	8	16

Structure (SMILES)	MIC EC8 [1]	MIC, SA [2]	MIC Spn52 [3]
Cc1[nH]c2nc(Sc3cnc4nccnc4c3)nc(N3CC4C(N)C4C3)c2c1C (stereo not drawn) [701,117]	> 64 µg/mL	8	8
CCc1[nH]c2nc(Sc3cnc4nccnc4c3)nc(N3CC4NC4C3)c2c1Cl (stereo not drawn) [701,118]	64 µg/mL (≈ 151 µM)	4	2
CCc1[nH]c2nc(Sc3cnc4nccnc4c3)nc(N3CCC(CC)(NC(=O)C(F)(F)F)C3)c2c1Cl (stereo not drawn) [701,120]	> 64 µg/mL	4	32
CCc1[nH]c2nc(Oc3cnc(N)nc3)nc(N3CC4C(N)C4C3)c2c1Cl (stereo not drawn) [701,122]	32 µg/mL (≈ 82.7 µM)	2	2
CCc1[nH]c2nc(Oc3cnc4cccnc4c3)nc(N3CC4C(N)C4C3)c2c1Cl (stereo not drawn) [701,126]	4 µg/mL (≈ 9.48 µM)	<=0.5	<=0.5
CCc1[nH]c2nc(Sc3cnc4cccnc4c3)nc(N3CC4CC(C3)N(C(=O)OC(C)(C)C)C4)c2c1Cl (stereo not drawn) [701,132]	> 64 µg/mL	>64	>64
CCc1[nH]c2nc(Oc3cnc(C(N)=O)nc3)nc(N3CC4C(N)C4C3)c2c1Cl (stereo not drawn) [701,133]	> 64 µg/mL	8	8
CCc1[nH]c2nc(Oc3cccnc3)nc(N3CC4C(N)C4C3)c2c1Cl (stereo not drawn) [701,140]	> 64 µg/mL	4	8
CCc1[nH]c2nc(Sc3cnc4cccnc4c3)nc(N3CC4C(N)C4C3)c2c1C (stereo not drawn) [701,143]	64 µg/mL (≈ 153 µM)	<=0.5	2
CCc1[nH]c2nc(Sc3cnc4nccnc4c3)nc(N3C[C@@H]4[C@H](C3)[C@@]4(N)CO)c2c1Cl [701,144]	32 µg/mL (≈ 68.2 µM)	<=0.5	2
CCc1[nH]c2nc(Sc3cnc4nccnc4c3)nc(N(CCN)CC(C)c3ccccc3)c2c1Cl (stereo not drawn) [701,147]	> 64 µg/mL	32	64
CCc1[nH]c2nc(Sc3cnc4nccnc4c3)nc(N(CCN)CC(C)C)c2c1Cl [701,148]	> 64 µg/mL	64	64
CCc1[nH]c2nc(Oc3cnc(C)nc3)nc(N3CC4C(N)C4C3)c2c1Cl (stereo not drawn) [701,151]	8 µg/mL (≈ 20.7 µM)	<=0.5	2
CCc1[nH]c2nc(Sc3cccnc3)nc(Cl)c2c1C(F)F [701,153]	> 64 µg/mL	64	>64
CCc1[nH]c2nc(Sc3cccnc3)nc(N3C[C@@H]4[C@@H](N)[C@@H]4C3)c2c1C(F)F [701,162]	> 32 µg/mL	16	32
CCc1[nH]c2nc(Oc3cncc(C(=O)OC)c3)nc(N3CC4C(N)C4C3)c2c1Cl (stereo not drawn) [701,163]	> 64 µg/mL	>64	>64

The remaining lines, values ahead:

MIC EC8 [1]	MIC, SA [2]	MIC Spn52 [3]	Structure (SMILES)
> 64 µg/mL	16	16	CCc1[nH]c2nc(Sc3ccc4[nH]cc(C(=O)OC)c4c3)nc(N3CC[C@@H](N)C3)c2c1Cl [701,062]
4 µg/mL (≈ 9.13 µM)	8	4	N[C@@H]1CCN(c2nc(Sc3cnc4cccnc4c3)nc3[nH]c(C4CC4)c(Cl)c23)C1 [701,064]
16 µg/mL (≈ 37.7 µM)	8	4	NC1CN(c2nc(Sc3cnc4cccnc4c3)nc3[nH]c(C4CC4)c(Cl)c23)C1 [701,065]
> 64 µg/mL	4	>64	CCc1[nH]c2nc(Sc3ccc4[nH]c(N)nc(=O)c4c3)nc(N3CC[C@@H](N)C3)c2c1Cl [701,066]
8 µg/mL (≈ 18.3 µM)	<=0.5	<=0.5	CCc1[nH]c2nc(Sc3ccc4cncnc4c3)nc(N3CC4C(N)C4C3)c2c1Cl (stereo not drawn) [701,069]
64 µg/mL (≈ 157 µM)	4	8	CCc1[nH]c2nc(Oc3ccc4cccnc4c3)nc(N3CC[C@@H](N)C3)c2c1Cl [701,070]
8 µg/mL (≈ 17.6 µM)	8	8	N[C@@H]1CCN(c2nc(Sc3cnc4ccc[n+]([O-])c4c3)nc3[nH]c(C4CC4)c(Cl)c23)C1 [701,075]
> 64 µg/mL	>64	64	CCc1[nH]c2nc(SC)nc(N3CC[C@@H](N)C3)c2c1Cl [701,076]
4 µg/mL (≈ 8.32 µM)	<=0.5	16	CCc1[nH]c2nc(Sc3ccc4cc5c(nc4c3)CCOC5)nc(N3CC[C@@H](N)C3)c2c1Cl [701,082]
16 µg/mL (≈ 32.2 µM)	<=0.5	1	CCc1[nH]c2nc(Sc3ccc4cc5c([n+]([O-])c4c3)CCOC5)nc(N3CC[C@@H](N)C3)c2c1Cl [701,083]
8 µg/mL (≈ 15.7 µM)	<=0.5	<=0.5	CCc1[nH]c2nc(Sc3ccc4cc5c([n+]([O-])c4c3)CCOC5)nc(N3CC4C(N)C4C3)c2c1Cl (stereo not drawn) [701,084]
> 64 µg/mL	<=0.5	<=0.5	CCc1[nH]c2nc(Sc3ccc4nc(N)n[n+]([O-])c4c3)nc(N3CC[C@@H](N)C3)c2c1Cl [701,087]
32 µg/mL (≈ 66.7 µM)	1	1	CCc1[nH]c2nc(Sc3cc(C#N)c4c(c3)c(=O)ccn4C)nc(N3CC[C@@H](N)C3)c2c1Cl [701,088]
> 64 µg/mL	2	4	CCc1[nH]c2nc(Sc3cnc(N4CCC4)c([N+](=O)[O-])c3)nc(N3CC[C@@H](N)C3)c2c1Cl [701,089]
> 64 µg/mL	8	8	CCc1[nH]c2nc(Sc3ccc4[nH]nnc4c3)nc(N3CC[C@@H](N)C3)c2c1Cl [701,090]
> 64 µg/mL	>64	>64	CCc1[nH]c2nc(Sc3cnc4[nH][nH]c(=O)c4c3)nc(N3CC[C@@H](N)C3)c2c1Cl [701,094]
16 µg/mL (≈ 35.3 µM)	<=0.5	1.	CCc1[nH]c2nc(Sc3cnc4nccnc4c3)nc(N3CCC4CN[C@H]4C3)c2c1Cl (stereo partly drawn) [701,102]
16 µg/mL (≈ 35.4 µM)	<=0.5	<=0.5	CCc1[nH]c2nc(Sc3cnc4cccnc4c3)nc(N3CCC4CNC4C3)c2c1Cl (stereo not drawn) [701,115]
16 µg/mL (≈ 34.2 µM)	<=0.5	2	CCc1[nH]c2nc(Sc3cnc4ccc[n+]([O-])c4c3)nc(N3CCC4CNC4C3)c2c1Cl (stereo not drawn) [701,116]
> 64 µg/mL	32	16	CCc1[nH]c2nc(Sc3cnc4nccnc4c3)nc(N3C[C@@H](O)[C@@H](N)C3)c2c1Cl [701,119]
64 µg/mL (≈ 141 µM)	2	4	CCc1[nH]c2nc(Sc3cnc4nccnc4c3)nc(N3CC4CNC(C4)C3)c2c1Cl (stereo not drawn) [701,137]
64 µg/mL (≈ 158 µM)	4	16	CCc1[nH]c2nc(Sc3cnc4cccnc4c3)nc(N3CC[C@@H](N)C3)c2c1C [701,161]
